In PubChem BioAssay AID1963962 (Molecular Pharmacology Branch, DTP, NCI, 2024):

Tested on: 967376-340-R-J2-PDC multicell spheroid viability
Assay: Anticancer human tumor 967376-340-R-J2-PDC patient-derived colon adenocarcinoma cell line growth inhibition [PI3K]
Details: for IC50: curve of first compound; for viability, T/C: stronger effect = lower value
Outline: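 Tumor cells grown as multi-cell spheroids with HUVEC endothelial cells and MSC fibroblast-like stroma were treated with targeted agents combined with inavolisib, alpelisib, duvelisib or copanlisib. Doses fell in half-log steps from near clinical Cmax, else from 10 microM. Viability was measured.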

[1] = second compound 0.00316 µM, first compound 0.0316 µM
[2] = second compound 0.00316 µM, first compound 0.1 µM
[3] = second compound 0.00316 µM, first compound 0.316 µM
[4] = second compound 0.00316 µM, first compound 1 µM
[5] = second compound 0.00316 µM, first compound 3.16 µM
[6] = second compound 0.00316 µM, first compound 10 µM
[7] = second compound 0.01 µM, first compound 0.0316 µM
[8] = second compound 0.01 µM, first compound 0.1 µM
[9] = second compound 0.01 µM, first compound 0.316 µM
[10] = second compound 0.01 µM, first compound 1 µM
[11] = second compound 0.01 µM, first compound 3.16 µM
[12] = second compound 0.01 µM, first compound 10 µM
[13] = second compound 0.0316 µM, first compound 0.0316 µM
[14] = second compound 0.0316 µM, first compound 0.1 µM
[15] = second compound 0.0316 µM, first compound 0.316 µM
[16] = second compound 0.0316 µM, first compound 1 µM
[17] = second compound 0.0316 µM, first compound 3.16 µM
[18] = second compound 0.0316 µM, first compound 10 µM
[19] = second compound 0.1 µM, first compound 0.0316 µM
[20] = second compound 0.1 µM, first compound 0.1 µM
[21] = second compound 0.1 µM, first compound 0.316 µM
[22] = second compound 0.1 µM, first compound 1 µM
[23] = second compound 0.1 µM, first compound 3.16 µM
[24] = second compound 0.1 µM, first compound 10 µM
[25] = second compound 0.316 µM, first compound 0.0316 µM
[26] = second compound 0.316 µM, first compound 0.1 µM
[27] = second compound 0.316 µM, first compound 0.316 µM
[28] = second compound 0.316 µM, first compound 1 µM
[29] = second compound 0.316 µM, first compound 3.16 µM
[30] = second compound 0.316 µM, first compound 10 µM
[31] = second compound 1 µM, first compound 0.0316 µM
[32] = second compound 1 µM, first compound 0.1 µM
[33] = second compound 1 µM, first compound 0.316 µM
[34] = second compound 1 µM, first compound 1 µM
[35] = second compound 1 µM, first compound 3.16 µM
[36] = second compound 1 µM, first compound 10 µM
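Further: spheroids exposed to agents for 7 days before read-out.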
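Wherever viability, T/C is given: luminescence used as surrogate of cell viability.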

In the case of C#Cc1c(F)ccc2cc(O)cc(-c3ncc4c(N5CC6CCC(C5)N6)nc(OCC56CCCN5CC(F)C6)nc4c3F)c12 (centres undefined) + COc1c(OCCCN2CCOCC2)ccc2c3n(c(=NC(=O)c4cnc(N)nc4)nc12)CCN3, the IC50 (second compound 0.00316 µM) is reported as > 10 µM, the IC50 (second compound 0.01 µM) is reported as > 10 µM and the IC50 (second compound 0.0316 µM) is reported as > 10 µM. The IC50 (second compound 0.1 µM) was 1.21 µM, the IC50 (second compound 0.316 µM) was 3.64 µM and the IC50 (second compound 1 µM) was < 0.0316 µM. For the same molecule, the viability, T/C [1] was 89%, the viability, T/C [2] was 99.1% and the viability, T/C [3] was 101%. For the same molecule, the viability, T/C [4] was 109%, the viability, T/C [5] was 91.8% and the viability, T/C [6] was 84.7%. For the same molecule, the viability, T/C [7] was 94.2%, the viability, T/C [8] was 102% and the viability, T/C [9] was 79.2%. It also gave a viability, T/C [10] of 91.6%, a viability, T/C [11] of 77.9% and a viability, T/C [12] of 62.9%. It also gave a viability, T/C [13] of 83%, a viability, T/C [14] of 82.5% and a viability, T/C [15] of 81.5%. It also gave a viability, T/C [16] of 77.1%, a viability, T/C [17] of 81.8% and a viability, T/C [18] of 57.3%. For the same molecule, the viability, T/C [19] was 68.4%, the viability, T/C [20] was 61.8% and the viability, T/C [21] was 58.1%. For the same molecule, the viability, T/C [22] was 48.8%, the viability, T/C [23] was 47.1% and the viability, T/C [24] was 49%. The viability, T/C [25] was 56.1%, the viability, T/C [26] was 48.2% and the viability, T/C [27] was 53.7%. For the same molecule, the viability, T/C [28] was 42.3%, the viability, T/C [29] was 63.6% and the viability, T/C [30] was 29.8%. It also gave a viability, T/C [31] of 42.9%, a viability, T/C [32] of 40.9% and a viability, T/C [33] of 44.2%. The viability, T/C [34] was 40%, the viability, T/C [35] was 40.7% and the viability, T/C [36] was 18.6%.
For CC(Cn1ccc(-c2ccc(C#N)c(Cl)c2)n1)NC(=O)c1cc(C(C)O)[nH]n1 (centres undefined) + COc1c(OCCCN2CCOCC2)ccc2c3n(c(=NC(=O)c4cnc(N)nc4)nc12)CCN3, the IC50 (second compound 0.00316 µM) was > 10 µM, the IC50 (second compound 0.01 µM) was > 10 µM and the IC50 (second compound 0.0316 µM) was > 10 µM. The IC50 (second compound 0.1 µM) was > 10 µM, the IC50 (second compound 0.316 µM) was 0.0954 µM and the IC50 (second compound 1 µM) was < 0.0316 µM. It also gave a viability, T/C [1] of 109%, a viability, T/C [2] of 117% and a viability, T/C [3] of 79.6%. For the same molecule, the viability, T/C [4] was 93.6%, the viability, T/C [5] was 110% and the viability, T/C [6] was 86%. The viability, T/C [7] was 91.2%, the viability, T/C [8] was 77% and the viability, T/C [9] was 76.8%. For the same molecule, the viability, T/C [10] was 91.6%, the viability, T/C [11] was 82.7% and the viability, T/C [12] was 86.1%. For the same molecule, the viability, T/C [13] was 81.7%, the viability, T/C [14] was 88.1% and the viability, T/C [15] was 61.9%. For the same molecule, the viability, T/C [16] was 57.7%, the viability, T/C [17] was 76.4% and the viability, T/C [18] was 63.8%. The viability, T/C [19] was 78.6%, the viability, T/C [20] was 54.4% and the viability, T/C [21] was 59.4%. The viability, T/C [22] was 67.5%, the viability, T/C [23] was 70.5% and the viability, T/C [24] was 59.5%. For the same molecule, the viability, T/C [25] was 64.2%, the viability, T/C [26] was 44.9% and the viability, T/C [27] was 48.2%. The viability, T/C [28] was 46.1%, the viability, T/C [29] was 57.4% and the viability, T/C [30] was 50.3%. It also gave a viability, T/C [31] of 36.6%, a viability, T/C [32] of 42.4% and a viability, T/C [33] of 26.6%. The viability, T/C [34] was 47.1%, the viability, T/C [35] was 34.4% and the viability, T/C [36] was 32.6%.
